In publication PMC7332124, “Design, One Pot Synthesis and Molecular Docking Studies of Substituted-1H-Pyrido[2,1-b] Quinazolines as Apoptosis-Inducing Anticancer Agents” (Asian Pacific Journal of Cancer Prevention : APJCP, 2020):
Like-named read-outs stand apart in the source and are kept apart here.

What was measured:
A549 [1] = test: MTT cytotoxicity assay; format: cell-based, human; conditions: A549 adenocarcinoma (lung), MTT, 72 h, read-out: In vitro Inhibitory Concentration (IC50)
Procedure: (§1) Various cancer cells were used to screen anticancer activity of newly synthesized compounds. Lung (A549 and NCI-H460), colon (HCT-15 and HT-29), prostate (DU-145) cancer cells maintained in RPMI-1640 media while normal lung fibroblasts cell line (HFL-1) were maintained in F-12 k medium supplemented with 10% fetal bovine serum (FBS) with 1% antibiotic-antimycotic solution (Sigma). Cells were maintained in 5% CO2 with 98% relative humidity at 37 °C in incubator. When 80-90% of confluency is reached, they were sub-cultured using 0.25% trypsin/1 mM EDTA solution for further passage. The compounds in this series were dissolved in DMSO (1 %) to prepare the stock solution of 10 mM. Further dilutions were made accordingly with respective media to obtain the required concentrations.
(§2) MTT assay measures the reduction of MTT (3-(4,5-dimethylthiazol- 2-yl)-2,5-diphenyl tetrazolium bromide) by mitochondrial succinate dehydrogenase enzyme to insoluble formazan crystals. Since reduction of MTT occurs only in metabolically active cells, the level of activity is the measure of the viability of the cells.(Pordeli et al., 2017). Briefly, cells were plated in 96-well plates at a density of 3,000 to 6,000 cells per well in 100 µl of complete medium and allowed to grow overnight. Then the cells were treated with different concentrations of the synthesized compounds and incubated for 72 h. After the treatment, 100 µl of MTT (0.5 mg/ml) was added and incubated at 37 °C for 4 h. Then MTT reagent was aspirated and formazan crystals formed were dissolved by the addition of 200 µL of DMSO for 20 min at 37 °C. The formazan product quantity was measured by using a spectrophotometric microtiter plate reader (Spectra Max, M4 Molecular devices, USA) at 570 nm wavelength(Nekkanti et al., 2017).

DU-145 [2] = test: MTT cytotoxicity assay; format: cell-based, human; conditions: DU-145 prostate cancer, 72 h, read-out: In vitro Inhibitory Concentration (IC50)
Procedure: as §1, §2

HCT-15 [3] = test: MTT cytotoxicity assay; format: cell-based, human; conditions: HCT-15 colon cancer, 72 h, read-out: In vitro Inhibitory Concentration (IC50)
Procedure: as §1, §2

[4] = tested on: HFL-1 normal lung fibroblasts; test: MTT cytotoxicity assay; format: cell-based, human; conditions: read-out: In vitro Inhibitory Concentration (IC50)
Procedure: as §1, §2

HT-29 [5] = test: MTT cytotoxicity assay; format: cell-based, human; conditions: HT-29 colorectal cancer, 72 h, read-out: In vitro Inhibitory Concentration (IC50)
Procedure: as §1, §2

NCI-H460 [6] = test: MTT cytotoxicity assay; format: cell-based, human; conditions: NCI-H460 lung carcinoma, 72 h, read-out: In vitro Inhibitory Concentration (IC50)
Procedure: as §1, §2

A549 [7] = test: Cell growth inhibition assay (MTT, day 0 subtracted); format: cell-based, human; conditions: 72 h, read-out: In vitro Growth Inhibitory Concentration (GI50)
Procedure: as §1
(§3) Briefly, the cells were seeded on to a 96-well plate in 100 µl of medium. Following 24 h MTT reagent was added in few wells and day 0 absorbance was analyzed, and then cells were treated with compounds and incubated for an additional 72 h. After the treatment, 100 µl of MTT (0.5 mg/ml) was added and incubated at 37 °C for 4 h. Then MTT reagent was suctioned, the insoluble formazan crystals were dissolved in DMSO and formazan product formed is measured at 570 nm wavelength. The day 0 absorbance was subtracted from the 72 h incubated plates and data were plotted as a percentage of untreated control (Dai et al., 2011).

DU-145 [8] = test: as above; format: cell-based, human; conditions: 72 h, read-out: In vitro Growth Inhibitory Concentration (GI50)
Procedure: as §1, §3

HCT-15 [9] = test: as above; format: cell-based, human; conditions: 72 h, read-out: In vitro Growth Inhibitory Concentration (GI50)
Procedure: as §1, §3

[10] = tested on: HFL-1 normal lung fibroblasts; test: as above; format: cell-based, human; conditions: read-out: In vitro Growth Inhibitory Concentration (GI50)
Procedure: as §1, §3

HT-29 [11] = test: as above; format: cell-based, human; conditions: 72 h, read-out: In vitro Growth Inhibitory Concentration (GI50)
Procedure: as §1, §3

NCI-H460 [12] = test: as above; format: cell-based, human; conditions: 72 h, read-out: In vitro Growth Inhibitory Concentration (GI50)
Procedure: as §1, §3

GI50 (A549 [7]) [µM]	GI50 (A549 [7]; Homo sapiens) [µM]	GI50 (DU-145 [8]; Homo sapiens) [µM]	GI50 (HCT-15 [9]; Homo sapiens) [µM]	GI50 (HT-29 [11]; Homo sapiens) [µM]	GI50 (NCI-H460 [12]; Homo sapiens) [µM]	melting point [°C]	Compound	IC50 (A549 [1]) [µM]	IC50 (DU-145 [2]) [µM]	IC50 (HCT-15 [3]) [µM]	IC50 ([4]; 72 h) [µM]	IC50 (HT-29 [5]) [µM]	IC50 (NCI-H460 [6]) [µM]	IC50 (A549 [1]; Homo sapiens) [µM]	IC50 (DU-145 [2]; Homo sapiens) [µM]	IC50 (HCT-15 [3]; Homo sapiens) [µM]	IC50 ([4]; Homo sapiens, HFL1, 72 h) [µM]	IC50 (HT-29 [5]; Homo sapiens) [µM]	IC50 (NCI-H460 [6]; Homo sapiens) [µM]	GI50 ([10]; Homo sapiens, HFL1, 72 h) [µM]	further results
> 30							11-(4-trimethoxyphenyl)-2, 3, 4, 11-tetrahydro-1H-pyrido[2,1-b] quinazoline [Compound 4h]	> 30	> 30	> 30	> 30	> 30	> 30								GI50 (DU-145 [8]): > 30 µM; GI50 (HCT-15 [9]): > 30 µM; GI50 ([10]; 72 h): > 30 µM; GI50 (HT-29 [11]): > 30 µM; GI50 (NCI-H460 [12]): > 30 µM
	> 30	> 30	> 30	> 30	> 30	154 to 156	C1=CC2=NC3=C(CCCC3)C(c3ccccc3)N2C=C1 (stereo not drawn) [Compound 4a, 11-Phenyl-2,3,4, 11-tetrahydro-1H-pyrido [2,1-b] quinazoline]							> 30	> 30	> 30	> 30	> 30	> 30	> 30	
	> 30	> 30	> 30	> 30	> 30	150 to 151	O=[N+]([O-])c1ccc(C2C3=C(CCCC3)N=C3C=CC=CN32)cc1 (stereo not drawn) [Compound 4c, 11-(4-Nitrophenyl)-2,3,4, 11-tetrahydro-1H-pyrido[2,1-b]quinazoline]							> 30	> 30	> 30	> 30	> 30	> 30	> 30	
	> 30	> 30	> 30	> 30	> 30	88 to 89	COc1ccc(C2C3=C(CCCC3)N=C3C=CC=CN32)cc1 (stereo not drawn) [Compound 4d, 11-(4-Methoxyphenyl)-2,3,4, 11-tetrahydro-1H-pyrido[2,1-b]quinazoline]							> 30	> 30	> 30	> 30	> 30	> 30	> 30	
29.5 ± 0.79							Cc1ccc(C2C3=C(CCCC3)N=C3C=CC=CN32)cc1 (stereo not drawn) [Compound 4e]	43.1 ± 2.43	23.2 ± 0.25	40.9 ± 0.55	85 ± 3.8	39.5 ± 1.4	43.2 ± 2.58								GI50 (DU-145 [8]): 17.7 ± 0.13 µM; GI50 (HCT-15 [9]): 23.44 ± 0.2 µM; GI50 ([10]; 72 h): 68.6 ± 3.2 µM; GI50 (HT-29 [11]): 15.8 ± 0.97 µM; GI50 (NCI-H460 [12]): 20.8 ± 1.82 µM
	8.64 ± 0.4	11.3 ± 0.34	12.9 ± 0.73	11.43 ± 0.06	9.62 ± 0.41	131 to 132	ClC1=CN2C(=NC3=C(CCCC3)C2c2ccc(Cl)cc2)C=C1 (stereo not drawn) [Compound 4f, 8-Chloro-11-(4-chlorophenyl)-2,3,4, 11-tetrahydro-1H-pyrido [2,1-b] quinazoline]							12.8 ± 1.5	16.08 ± 0.14	19.3 ± 1.16	15.2 ± 0.3	15.4 ± 0.11	12.6 ± 0.35	11.6 ± 0.17	
	9.23 ± 0.93	7.37 ± 2.5	10 ± 0.97	20.8 ± 3.74	17.5 ± 2.05	88 to 93	Fc1ccc(C2C3=C(CCCC3)N=C3C=CC(Cl)=CN32)cc1 (stereo not drawn) [Compound 4g, 8-chloro-11-(4-fluorophenyl)-2,3,4,11-tetrahydro-1H-pyrido[2,1-b]quinazoline]							25.5 ± 3.98	32.9 ± 3.77	28.6 ± 1.96	63.1 ± 1.79	41.3 ± 1.43	41.5 ± 1.27	41.7 ± 0.98	
	5.79 ± 0.14	8.1 ± 0.1	7.81 ± 0.65	4.4 ± 0.2	7.1 ± 0.19	180 to 182	C1=CC2=NC3=C(CCCC3)C(c3c[nH]c4ccccc34)N2C=C1 (stereo not drawn) [Compound 4j, 11-(1H-indol-3-yl)-2,3,4, 11-tetrahydro-1H-pyrido [2,1-b]quinazoline]							8.98 ± 0.32	12.6 ± 0.23	10.9 ± 0.4	9.31 ± 0.32	7.25 ± 0.38	9.27 ± 0.54	7.67 ± 0.22	

Compound	GI50 (A549 [7]) [µM]	GI50 (A549 [7]; Homo sapiens) [µM]	GI50 (DU-145 [8]; Homo sapiens) [µM]	GI50 (HCT-15 [9]; Homo sapiens) [µM]	GI50 (HT-29 [11]; Homo sapiens) [µM]	GI50 (NCI-H460 [12]; Homo sapiens) [µM]	melting point [°C]	IC50 (A549 [1]) [µM]	IC50 (DU-145 [2]) [µM]	IC50 (HCT-15 [3]) [µM]	IC50 ([4]; 72 h) [µM]	IC50 (HT-29 [5]) [µM]	IC50 (NCI-H460 [6]) [µM]	IC50 (A549 [1]; Homo sapiens) [µM]	IC50 (DU-145 [2]; Homo sapiens) [µM]	IC50 (HCT-15 [3]; Homo sapiens) [µM]	IC50 ([4]; Homo sapiens, HFL1, 72 h) [µM]	IC50 (HT-29 [5]; Homo sapiens) [µM]	IC50 (NCI-H460 [6]; Homo sapiens) [µM]	GI50 ([10]; Homo sapiens, HFL1, 72 h) [µM]	further results
Clc1ccc(C2C3=C(CCCC3)N=C3C=CC=CN32)cc1 (stereo not drawn) [Compound 4b, 11-(4-Chlorophenyl)-2,3,4, 11-tetrahydro-IH-pyrido [2,1-b] quinazoline]	> 30							> 30	> 30	> 30	> 30	> 30	> 30								GI50 (DU-145 [8]): > 30 µM; GI50 (HCT-15 [9]): > 30 µM; GI50 ([10]; 72 h): > 30 µM; GI50 (HT-29 [11]): > 30 µM; GI50 (NCI-H460 [12]): > 30 µM
